In US7858630B2, “D3 and 5-HT2A receptor modulators” (Hoffmann-La Roche Inc., priority 2008, dated 2010):

Assays:
[1] = target: T1, human dopamine D2 receptor (Homo sapiens, UniProt P14416); assay: Radioligand binding ([3H]-spiperone) to membranes of HEK-293 EBNA cells expressing human D2 receptor; conditions: human D2, 0.7 nM [3H]-spiperone, HEK-293 EBNA membranes, 1 h at RT
T1 construct: expressed in transfected cells; host or cells: HEK-293 EBNA cells, transient transfection; membrane preparation
T1 sequence (P14416 whole entry): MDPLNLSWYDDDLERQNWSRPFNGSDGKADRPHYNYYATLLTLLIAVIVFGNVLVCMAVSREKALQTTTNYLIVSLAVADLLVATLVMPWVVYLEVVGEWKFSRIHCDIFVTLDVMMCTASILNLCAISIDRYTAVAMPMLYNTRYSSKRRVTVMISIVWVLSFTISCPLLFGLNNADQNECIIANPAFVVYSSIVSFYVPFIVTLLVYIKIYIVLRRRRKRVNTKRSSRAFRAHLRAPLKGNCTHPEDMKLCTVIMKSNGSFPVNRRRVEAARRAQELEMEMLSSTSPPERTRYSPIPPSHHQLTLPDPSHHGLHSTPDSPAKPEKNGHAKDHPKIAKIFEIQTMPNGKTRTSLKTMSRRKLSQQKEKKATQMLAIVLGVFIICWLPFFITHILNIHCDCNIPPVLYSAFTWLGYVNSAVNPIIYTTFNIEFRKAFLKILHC
Method: (§1) The ability of the compounds to bind to the 5-HT2A, D3 and D2 receptors was determined using radioligand binding to cloned receptors selectively expressed in HEK-293 EBNA cells.
(§2) Membrane Preparation for Human D2, Human D3 and Human 5-HT2A Receptors
(§3) HEK-293 EBNA cells were transiently transfected with expression plasmids encoding for the human D2 or D3 dopamine- or for the human 5-HT2A serotonin receptor, respectively. The cells were harvested 48 h post-transfection, washed three times with cold PBS and stored at −80° C. prior to use. The pellet was suspended in cold 50 mM Tris-HCl buffer containing 10 mM EDTA (pH 7.4) and homogenized with a Polytron (Kinematica AG, Basel, Switzerland) for 20-30 sec at 12.000 rpm. After centrifugation at 48.000×g for 30 min at 4° C., the pellet was resuspended in cold 10 mM Tris-HCl buffer containing 0.1 mM EDTA (pH 7.4), homogenized, and centrifuged as above. This pellet was further resuspended in a smaller volume of ice cold 10 mM Tris-HCl buffer containing 0.1 mM EDTA (pH 7.4) and homogenized with a Polytron for 20-30 sec at 12.000 rpm. The protein content of this homogenate was determined with the Bio-Rad (Bradford) Protein Assay (Biorad Laboratories GmbH, München, Germany) according to the instructions of the manufacturer using gamma globulin as the standard. This homogenate was stored at −80° C. in aliquots and thawed immediately prior to use.
(§4) Radioligand Binding Assay Conditions
(§5) Aliquots of membrane preparations were thawed at RT, resupended in assay buffer (D2, D3: 50 mM Tris-HCl, 120 mM NaCl, 5 mM MgCl2, 1 mM EDTA, 5 mM KCl, 1.5 mM CaCl2, pH=7.4; 5-HT2A: 50 mM Tris-HCl, 10 mM MgCl2, 1 mM EGTA, pH=7.4), homogenized with a Polytron for 20-30 sec at 12.000 rpm and adjusted to a final concentration of approximately 7.5 μg protein/well (D2, D3) and 15 μg protein/well (5-HT2A), respectively.
(§6) The binding affinity (Ki) of the compounds was determined using radioligand binding. Membranes were incubated in a total volume of 200 μl with a fixed concentration of radioligand (final concentration approximately 0.7 nM [^3H]-spiperone for D2, 0.5 nM [^3H]-spiperone for D3, and 1.1 nM [^3H]-ketanserin for 5-HT2A) and ten concentrations of test compound in ranging between 10 μM-0.1 nM for 1 h at RT. At the end of the incubation, the reaction mixtures were filtered on to unifilter 96-well white microplates with bonded GF/C filters (Packard BioScience, Zurich, Switzerland; preincubated for 1 h in 0.1% polyethylenimine (PEI) in assay buffer) with a Filtermate 196 harvester (Packard BioScience) and washed 3 times with cold assay buffer. The nonspecific binding was determined with equally composed reaction mixtures in the presence of 10 μM unlabelled spiperone. Per well 45 μl of Microscint 40 (Perkin Elmer, Schwerzenbach, Switzerland) was added, plates for sealed, shaken for 20 min and counted for 3 min on a Topcount Microplate Scintillation Counter (Canberra Packard SA, Zurich, Switzerland) with quenching correction.
(§7) The CPM value for each duplicate of a concentration of competing compound was averaged (y1), then the % specific binding was calculated according to the equation (((y1−non-specific)/(total binding-non-specific))×100). Graphs were plotted with the % specific binding using XLfit, a curve fitting program that iteratively plots the data using Levenburg Marquardt algorithm. The single site competition analysis equation used was y=A+((B−A)/(1+((x/C)^D))), where y is the % specific binding, A is the minimum y, B is the maximum y, C is the IC50, x is the log10 of the concentration of the competing compound and D is the slope of the curve (the Hill Coefficient). From these curves the IC50 (inhibition concentration at which 50% specific binding of the radioligand was displaced) and Hill coefficient were determined. […]

[2] = target: T2, human serotonin 5-HT2A receptor (Homo sapiens, UniProt P28223); assay: Radioligand binding ([3H]-ketanserin) to membranes of HEK-293 EBNA cells expressing human 5-HT2A receptor; conditions: 1.1 nM [3H]-ketanserin, HEK-293 EBNA membranes, 1 h at RT
T2 construct: expressed in transfected cells; host or cells: HEK-293 EBNA cells, transient transfection; membrane preparation
T2 sequence (P28223 whole entry): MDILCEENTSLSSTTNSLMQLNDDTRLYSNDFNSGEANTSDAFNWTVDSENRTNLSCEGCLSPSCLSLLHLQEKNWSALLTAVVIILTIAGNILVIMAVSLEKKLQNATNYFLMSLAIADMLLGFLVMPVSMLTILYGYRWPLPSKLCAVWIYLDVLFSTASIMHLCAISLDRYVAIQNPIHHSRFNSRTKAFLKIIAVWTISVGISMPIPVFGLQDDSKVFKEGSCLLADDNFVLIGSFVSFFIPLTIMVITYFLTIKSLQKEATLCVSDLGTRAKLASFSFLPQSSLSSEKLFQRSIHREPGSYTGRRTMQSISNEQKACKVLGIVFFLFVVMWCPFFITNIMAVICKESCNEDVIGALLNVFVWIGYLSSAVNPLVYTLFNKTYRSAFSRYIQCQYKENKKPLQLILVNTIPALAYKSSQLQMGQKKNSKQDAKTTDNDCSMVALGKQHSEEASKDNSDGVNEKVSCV
Method: as §1, §2, §3, §4, §5, §6, §7

[3] = target: T3, human dopamine D3 receptor (Homo sapiens, UniProt P35462); assay: Radioligand binding ([3H]-spiperone) to membranes of HEK-293 EBNA cells expressing human D3 receptor; conditions: human D3, 0.5 nM [3H]-spiperone, HEK-293 EBNA membranes, 1 h at RT
T3 construct: expressed in transfected cells; host or cells: HEK-293 EBNA cells, transient transfection; membrane preparation
T3 sequence (P35462 whole entry): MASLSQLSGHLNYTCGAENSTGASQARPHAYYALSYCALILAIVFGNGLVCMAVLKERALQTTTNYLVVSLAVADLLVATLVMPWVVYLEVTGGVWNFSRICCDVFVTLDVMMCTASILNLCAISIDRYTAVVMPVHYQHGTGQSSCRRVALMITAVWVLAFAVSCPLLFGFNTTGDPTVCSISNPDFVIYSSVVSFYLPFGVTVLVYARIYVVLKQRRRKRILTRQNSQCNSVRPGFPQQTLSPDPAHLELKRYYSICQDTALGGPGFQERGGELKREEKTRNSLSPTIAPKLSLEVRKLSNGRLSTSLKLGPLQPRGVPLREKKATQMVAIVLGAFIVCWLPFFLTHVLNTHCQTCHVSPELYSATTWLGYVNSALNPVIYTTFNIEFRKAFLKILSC
Method: as §1, §2, §3, §4, §5, §6, §7

| SMILES | Ki [1] | Ki [2] | Ki [3] |
| --- | --- | --- | --- |
| CC(C)OC1CCC(CC(=O)N[C@H]2CC[C@H](CCN3CCN(c4noc5ccc(F)cc45)CC3)CC2)CC1 (mixture of isomers) [Example 10, N-trans-(4-{2-[4-(5-Fluoro-benzo[d]isoxazol-3-yl)-piperazin-1-yl]-ethyl}-cyclohexyl)-2-(4-isopropoxy-cyclohexyl)-acetamide] | 11500 nM | 10.4 nM | 6.6 nM |
| O=C(N[C@H]1CC[C@H](CCN2CCN(c3noc4cc(Cl)ccc34)CC2)CC1)C(O)C(F)(F)F (mixture of isomers) [Example 33, N-trans-(4-{2-[4-(6-Chloro-benzo[d]isoxazol-3-yl)-piperazin-1-yl]-ethyl}-cyclohexyl)-rac-3,3,3-trifluoro-2-hydroxy-propionamide] | 362 nM | 12.4 nM | 14.8 nM |
| CO[C@@H]1CC[C@@H](CC(=O)N[C@H]2CC[C@H](CCN3CCN(c4noc5ccccc45)CC3)CC2)C1 (relative stereo) [Example 3, N-trans-{4-[2-(4-Benzo[d]isoxazol-3-yl-piperazin-1-yl)-ethyl]-cyclohexyl]-2-trans-(3-methoxy-cyclopentyl)-acetamide] | 355 nM | 482 nM | 13.9 nM |
| CO[C@@H]1CC[C@@H](CC(=O)N[C@H]2CC[C@H](CCN3CCN(c4noc5cc(F)c(F)cc45)CC3)CC2)C1 (relative stereo) [Example 65, N-trans-(4-{2-[4-(5,6-Difluoro-benzo[d]isoxazol-3-yl)-piperazin-1-yl]-ethyl}-cyclohexyl)-2-trans-(3-methoxy-cyclopentyl)-acetamide] | 822 nM | 4.4 nM | 7.67 nM |
| O=C(CC1C[C@@H]2CC[C@H]1O2)N[C@H]1CC[C@H](CCN2CCN(c3noc4ccc(F)cc34)CC2)CC1 (stereo in doubt) [Example 19, N-trans-(4-{2-[4-(5-Fluoro-benzo[d]isoxazol-3-yl)-piperazin-1-yl]-ethyl}-cyclohexyl)-2-(1R,4S)-7-oxa-bicyclo[2.2.1]hept-2-yl-acetamide] | 1020 nM | 20.6 nM | 36 nM |
| COCCC(=O)N[C@H]1CC[C@H](CCN2CCN(c3noc4ccccc34)CC2)CC1 [Example 1, N-trans-{4-[2-(4-benzo[d]isoxazol-3-yl-piperazin-1-yl)-ethyl]-cyclohexyl}-3-methoxy-propionamide] | 347 nM | 4.88 nM | 12.1 nM |
| CC(=O)N[C@H]1CC[C@H](CCN2CCN(c3noc4ccccc34)CC2)CC1 [Example 2, N-trans-{4-[2-(4-benzo[d]isoxazol-3-yl-piperazin-1-yl)-ethyl]-cyclohexyl}-acetamide] | 272 nM | 4.96 nM | 8.88 nM |
| CO[C@H]1CC[C@H](CC(=O)N[C@H]2CC[C@H](CCN3CCN(c4noc5ccc(F)cc45)CC3)CC2)CC1 [Example 6, N-trans-(4-{2-[4-(5-Fluoro-benzo[d]isoxazol-3-yl)-piperazin-1-yl]-ethyl}-cyclohexyl)-2-trans-(4-methoxy-cyclohexyl)-acetamide] | 11800 nM | 26.3 nM | 6.44 nM |
| O=C(N[C@H]1CC[C@H](CCN2CCN(c3noc4ccc(F)cc34)CC2)CC1)C1CCOCC1 [Example 7, Tetrahydro-pyran-4-carboxylic acid-trans-(4-{2-[4-(5-fluoro-benzo[d]isoxazol-3-yl)-piperazin-1-yl]-ethyl}-cyclohexyl)-amide] | 654 nM | 13.8 nM | 11.6 nM |
| O=C(CC1CCOCC1)N[C@H]1CC[C@H](CCN2CCN(c3noc4ccc(F)cc34)CC2)CC1 [Example 8, N-trans-(4-{2-[4-(5-Fluoro-benzo[d]isoxazol-3-yl)-piperazin-1-yl]-ethyl}-cyclohexyl)-2-(tetrahydro-pyran-4-yl)-acetamide] | 1710 nM | 27.2 nM | 7.71 nM |
| CC(C)(O)CC(=O)N[C@H]1CC[C@H](CCN2CCN(c3noc4ccc(F)cc34)CC2)CC1 [Example 11, N-trans-(4-{2-[4-(5-Fluoro-benzo[d]isoxazol-3-yl)-piperazin-1-yl]-ethyl}-cyclohexyl)-3-hydroxy-3-methyl-butyramide] | 482 nM | 24 nM | 4.82 nM |
| CCOCC(=O)N[C@H]1CC[C@H](CCN2CCN(c3noc4ccc(F)cc34)CC2)CC1 [Example 12, 2-Ethoxy-N-trans-(4-{2-[4-(5-fluoro-benzo[d]isoxazol-3-yl)-piperazin-1-yl]-ethyl}-cyclohexyl)-acetamide] | 1390 nM | 23.5 nM | 15.6 nM |
| O=C(CC(F)(F)F)N[C@H]1CC[C@H](CCN2CCN(c3noc4cc(F)c(Cl)cc34)CC2)CC1 [Example 93, N-trans-(4-{2-[4-(5-Chloro-6-fluoro-benzo[d]isoxazol-3-yl)-piperazin-1-yl]-ethyl}-cyclohexyl)-3,3,3-trifluoro-propionamide] | – | 6 nM | 1.96 nM |

Continued by falling Ki [2], values first:

| Ki [1] | Ki [2] | Ki [3] | SMILES |
| --- | --- | --- | --- |
| 725 nM | 31.6 nM | 2.56 nM | COCCC(=O)N[C@H]1CC[C@H](CCN2CCN(c3noc4ccc(F)cc34)CC2)CC1 [Example 5, N-trans-(4-{2-{4-(5-Fluoro-benzo[d]isoxazol-3-yl)-piperazin-1-yl]-ethyl}-cyclohexyl)-3-methoxy-propionamide] |
| 891 nM | 25.2 nM | 12.1 nM | CC1(C)CC(CC(=O)N[C@H]2CC[C@H](CCN3CCN(c4noc5ccc(F)cc45)CC3)CC2)CCO1 (mixture of isomers) [Example 18, Rac-2-(2,2-Dimethyl-tetrahydro-pyran-4-yl)-N-trans-(4-{2-[4-(5-fluoro-benzo[d]isoxazol-3-yl)-piperazin-1-yl]-ethyl}-cyclohexyl)-acetamide] |
| 1860 nM | 23.3 nM | 7.49 nM | COCC(=O)N[C@H]1CC[C@H](CCN2CCN(c3noc4ccc(F)cc34)CC2)CC1 [Example 9, N-trans-(4-{2-[4-(5-Fluoro-benzo[d]isoxazol-3-yl)-piperazin-1-yl]-ethyl}-cyclohexyl)-2-methoxy-acetamide] |
| 3020 nM | 3.37 nM | 10.4 nM | CC(C)OC1CCC(CC(=O)N[C@H]2CC[C@H](CCN3CCN(c4noc5cc(Cl)ccc45)CC3)CC2)CC1 (mixture of isomers) [Example 51, N-trans-(4-{2-[4-(6-Chloro-benzo[d]isoxazol-3-yl)-piperazin-1-yl]-ethyl}-cyclohexyl)-2-(4-isopropoxy-cyclohexyl)-acetamide] |
| 517 nM | 3.36 nM | 16.5 nM | O=C(CO)N[C@H]1CC[C@H](CCN2CCN(c3noc4ccccc34)CC2)CC1 [Example 4, N-trans-{4-[2-(4-Benzo[d]isoxazol-3-yl-piperazin-1-yl)-ethyl]-cyclohexyl}-2-hydroxy-acetamide] |
| 683 nM | 2.74 nM | 10.1 nM | CO[C@H]1CC[C@H](CC(=O)N[C@H]2CC[C@H](CCN3CCN(c4noc5cc(Cl)ccc45)CC3)CC2)C1 (relative stereo) [Example 36, N-trans-(4-{2-[4-(6-Chloro-benzo[d]isoxazol-3-yl)-piperazin-1-yl]-ethyl}-cyclohexyl)-2-trans-(3-methoxy-cyclopentyl)-acetamide] |
